The record followed here is patent publication US5776720A, “Assay reagent” (priority 1995, dated 1998).

The test system of one data set is lymphocytes. The experiment in a line: Normal leukocyte enzyme activity (Table 3A), lymphocytes. The arrangement: unit not given here. As to conditions: normal donors. The format is cell-based, human. From the text: (§1) The measured fluorescence intensity can be converted from mean channel fluorescence (in peak or integrated mode) to MESF (molecules of equivalent soluble fluorochrome, Flow Cytometry Standards Corp. , San Juan, Puerto Rico) or International Units of hydrolysis per cell. A normal range of enzyme activity is established by assaying males and females in sufficient quantity to characterize the population levels statistically.
(§2) A normal in house adult donor pool was drawn, recording sex and determining that no known disease state was present at the time of sample draw. Criteria for rejecting samples included patients under medication, patients with infection or inflammation of any type, colds and flu as well as any known medical illness such as cancer, heart ailment and high blood pressure. A donor list of 75 patients has been developed and a mean and 2 sd range established. A subgroup of "super normals" was developed from this list by examining the 75 patients to determine which group falls closest to the mean for all enzymes in all cell types tested. These patients were used as the "wellness index" or best group of "normalcy" patients. If a study required the use of children or newborns then this same format was used to develop a data base for these age groups.

For the next data set, the system named is granulocytes. In words: Normal leukocyte enzyme activity (Table 3A), granulocytes. As to conditions: normal donors. The format is cell-based, human. The arrangement: unit not given here.
Source text: as §1, §2

Another data set relates to granulocyte. In words: Peptidases to distinguish leukemia from non-leukemia (Table 6C), grans. The format is cell-based, human. The text has this: Artificial intelligence was used to analyze data of cellular enzyme functions, and determine normal and disease states. Peptidases were used to distinguish leukemia from non-leukemia (output pattern). For input patterns lymphocyte and granulocyte cell types were used with aminopeptidases, cathepsins and dipeptidylpeptidase enzyme activities. In this Example, illustrated in Tables 6A-6C, three normals and three leukemia patients were used as known output patterns for the neural network to learn (in practice, the larger the learning set the more accurate unknown prediction will be). Unknowns were then presented to the learned algorithm as shown in the test case examples. Clinical diagnosis was confirmed by physicians. The trained neural network was able to correctly classify the leukemia from the non-leukemia.

The test system of another data set is monocytes. In words: Normal leukocyte enzyme activity (Table 3A), monocytes. Particulars: normal donors. The arrangement: unit not given here. The format is cell-based, human.
Source text: as §1, §2

The next data set has as its system amino peptidase. The experiment in a line: immune competence, amino peptidase activity in Ficoll prepared lymphocytes (FIG. 4). The format is cell-based. Particulars: acute lympholytic Ficoll prepared lymphocytes, FIG. 4B. The text has this:
The cell's ability to fight off an invader lies within its genetics and therefore cell type. The "readiness" however of any genetically capable group of cells to defend is different. A measure of this "readiness" is manifest in the available proteolytic enzymes contained within vacuoles or on the surface of the cell. The assay compound hydrolysis rate increases with increased mass of enzymes giving a picture of immune competence both in number of cells and activity level. […] Images were generated using Universal Imaging.

The next data set can be described thus: native free fluorescence. The format is physicochemical. From the text:
Assays for peptidases using assay compounds generate fluorescence generally in the range of 10^-5 to 10^-6 Molar free rhodamine 110. Therefore, it is preferred that the free rhodamine 110 and blocked peptide impurities in the assay reagent should be removed to a concentration of less than the fluorescence generated by about 1×10^-6 M and more preferably less than the fluorescence generated by about 10^-7 Molar free indicator group. This amounts to a 100,000 photon count using rhodamine 110 as a standard at 10^-7 -10^-8 M, preferably 5×10^-8 M in a 1 cm path length cuvette when measured over 10 min. on a photon counting spectrofluorometer manufactured by the SLM Company of Chicago, Ill. This corresponds to a use level on the flow cytometer where no cellular false positive can be detected for a 10 minute period at the highest sensitivity setting. […] The presence of impurities causes a decrease in the storage stability of the compound, resulting in an increased autohydrolysis which leads to increased background fluorescence. A compound should be free of impurities such that when the compound (or reagent containing the compound) is stored at 4° C. for 30 days, preferably 90 days, more preferably 180 days, most preferably one year, the background fluorescence increases less than 10% , preferably less than 5% , most preferably less than 1% over these time periods, respectively. […]

The next data set in a line: autohydrolysis rate. As to conditions: 37° C., 1 cm path length. The format is physicochemical. On the procedure: A reaction run using the same data collection window without the enzyme source will determine auto-hydrolysis of the substrate and therefore the potential for negative cells to absorb the dye non-specifically resulting in false positive.
(§3) The acetate and tartrate salts thus prepared have the following characteristics, respectively: native free fluorescence, 63,000 and 61,000 photons; autohydrolysis rate when measured at 37° C. using a 1 cm path length, -5.56 and -3.8 change in photons per second; and enzymatic reaction rate of cathepsin B at 37° C., +128 and +138 change in photons per second.

Another data set relates to cathepsin B. In words: enzymatic reaction rate of cathepsin B. The format is biochemical. Particulars: 37° C. On the procedure:
as §3

The subject of the next data set is aminopeptidase. The experiment in a line: effect of calcium chloride on aminopeptidase reaction with (H-L-Asp)2 rhodamine 110. The format is biochemical. Particulars: approximately 10 mM. The text has this:
The chemical nature of the buffer is important to the reactivity of the assay compound with the cellular enzymes. […] In addition, the assay compound hydrolysis by the enzyme occurs at an increased rate of reaction.

A further data set has as its system enzyme. In words: modulator effect on sensitivity of substituted rhodamine 110 substrates. The format is cell-based. Particulars: 1 mM. From the text:
Modulators are components used to […] the sensitivity of the enzyme for the leaving group. The modulators speed up or slow down the activity of an enzyme by changing the active site. […] Preferred modulators for particular enzymes are included in Table 1.

The next data set relates to dipeptide reagent. The experiment in a line: effect of added sodium chloride on dipeptide reagent. The format is cell-based. As to conditions: addition of 7 mM, pH range 6.5 to 8.7. The text has this: Inhibitors and poisons (or toxins) are components that can be added to reduce the activity of non-targeted enzymes that provide competing reactions for the leaving group. Inhibitors are usually very selective for a particular enzyme. For example, EDTA only works with enzymes requiring Ca^+2, Mg^+2 and some other metals. […] Preferred inhibitors for particular enzymes are included in Table 1.

Structures can show the parent of a compound that is named as a salt.

With `NCC(=O)Nc1ccc2c(c1)Oc1cc(NC(=O)CN)ccc1C21OC(=O)c2ccccc21` [GLY, (Gly)2 Rho 110], the “NORMAL LEUKOCYTE ENZYME ACTIVITY, LYMPHS Mean” value in the data set with lymphocytes worked out at 18.18. Also, the “NORMAL LEUKOCYTE ENZYME ACTIVITY, GRANS Mean” value in the data set with granulocytes is recorded as 29.48. The enzyme activity in the data set with granulocyte (N192 NORMAL) is given as 48.67.

For the molecule `CC(C)C[C@H](N)C(=O)Nc1ccc2c(c1)Oc1cc(NC(=O)[C@@H](N)CC(C)C)ccc1C21OC(=O)c2ccccc21` [LEU, (Leu)2 Rho 110], the “NORMAL LEUKOCYTE ENZYME ACTIVITY, LYMPHS Mean” value with lymphocytes was 34.94. In the data set with monocytes, the “NORMAL LEUKOCYTE ENZYME ACTIVITY, MONOS Mean” value was found to be 120.66. In addition, in the data set on granulocytes, the “NORMAL LEUKOCYTE ENZYME ACTIVITY, GRANS Mean” value stood at 80.19. In the data set with amino peptidase, the amino peptidase activity entry was “lost their enzymatic activity”.

As to `CC(C)C[C@H](N)C(=O)NCC(=O)Nc1ccc2c(c1)Oc1cc(NC(=O)CNC(=O)[C@@H](N)CC(C)C)ccc1C21OC(=O)c2ccccc21` [LG], the “NORMAL LEUKOCYTE ENZYME ACTIVITY, LYMPHS Mean” value with lymphocytes amounted to 13.83. Moreover, in the data set with monocytes, the “NORMAL LEUKOCYTE ENZYME ACTIVITY, MONOS Mean” value is listed as 44.56. In the data set on granulocytes, the “NORMAL LEUKOCYTE ENZYME ACTIVITY, GRANS Mean” value was 29.99. Besides, the enzyme activity with granulocyte (N193 NORMAL) was found to be 3.55; with granulocyte (N199* NORMAL (later found to have cervical cancer)) it was 2.02.

Turning to `NCCCC[C@H](N)C(=O)Nc1ccc2c(c1)Oc1cc(NC(=O)[C@@H](N)CCCCN)ccc1C21OC(=O)c2ccccc21` [LYS, (H--L--Lys)2 Rho 110.4TFA], in the data set with lymphocytes, the “NORMAL LEUKOCYTE ENZYME ACTIVITY, LYMPHS Mean” value is reported as 1.16. Moreover, the “NORMAL LEUKOCYTE ENZYME ACTIVITY, MONOS Mean” value with monocytes stood at 7.56. Besides, the “NORMAL LEUKOCYTE ENZYME ACTIVITY, GRANS Mean” value in the data set on granulocytes is reported as 4.27. In the data set on granulocyte (N194 NORMAL), the enzyme activity worked out at 1.66.

`CC(C)C[C@H](N)C(=O)NCC(=O)Nc1ccc2c(c1)Oc1cc(NC(=O)CNC(=O)[C@@H](N)CC(C)C)ccc1C21OC(=O)c2ccccc21` [acetate, (H-LEU-GLY)2 Rhodamine 110 Acetate]: in “native free fluorescence”, the native free fluorescence was 63,000 photons. Moreover, the autohydrolysis rate in the data set “autohydrolysis rate” was -5.56 change in photons per second. For the same molecule, the “enzymatic reaction rate of cathepsin B” value in the data set on cathepsin B is given as “+128 change in photons per second”.

Consider `[Ca+2].[Cl-].[Cl-]` [calcium chloride], for which, in the data set with aminopeptidase, the “effect on aminopeptidase reaction with (H-L-Asp)2 rhodamine 110” value is “inhibitory to the enzyme reaction”.

For `O[C@H](CS)[C@@H](O)CS` [dithioerythritol (DTE), dithioerythritol], the “effect on sensitivity of leaving group for enzyme” value in the data set on enzyme (substrates with Ala-Gly and Leu-Gly) is “does not change the sensitivity”. Also, in the data set on enzyme (substrates with Pro, Gly, Gln-Ser, Val-Lys-Val-Lys, Ala-Ala, Ala-Ala-Ala-Ala), the “effect on sensitivity of rhodamine 110 substrates” value is given as “decreases the sensitivity”.

For `[Cl-].[Na+]` [sodium chloride], the “effect on dipeptide reagent” value in the data set with dipeptide reagent was “slightly inhibitory effect”.

On to `CC(C)C[C@H](N)C(=O)NCC(=O)Nc1ccc2c(c1)Oc1cc(NC(=O)CNC(=O)[C@@H](N)CC(C)C)ccc1C21OC(=O)c2ccccc21` [tartrate, (H-LEU-GLY)2 Rhodamine 110 Tartrate], for which the autohydrolysis rate in “autohydrolysis rate” is on record as -3.8 change in photons per second. Besides, in the data set on cathepsin B, the “enzymatic reaction rate of cathepsin B” value is reported as “+138 change in photons per second”.
